Several values for one entry are separate records, joined by “and”; a condition that tells them apart may be missing. Equal entries are not always repeated.
Columns and labels:
[1] = molecular target: recombinant TEAD4 protein (217-434, Uniprot ID: Q15561) (Homo sapiens (Human), UniProt Q15561); experiment: Thermal shift assay (protein melting point curve), TEAD4; format: binding; settings: 10 μM TEAD protein, 50 μM test compound
Procedure: (§1) The ability of the compounds to increase the melting point of purified recombinant TEAD1/2/3/4 proteins is tested using a thermal shift assay. The strength of the compound's binding to the protein and the selectivity of the compound's binding to the four TEAD subtypes are evaluated by calculating the melting point shift ΔTm−° C. […] Based on the Δ Tm value, the ability of the compound to bind to the TEAD protein is divided into four levels: ++++, +++, ++, +.
(§2) Test method of protein melting point curve: 10 μL of the protein melting point curve experimental system (10 μM TEAD protein, 50 μM test compound, SYPRO® orange (55692, sigma)) is prepared in a 384-well fluorescence quantitative PCR plate according to the following system, and reacted at 4° C. in the dark for 20 minutes. On-machine reaction: ABI QuantStudio Dx fluorescence quantitative PCR instrument; program: from 25° C. to 80° C., increasing the temperature at a rate of 0.05° C./s, and reading the fluorescence channel signal of the corresponding wavelength of SYPRO® orange every second.

[2] = molecular target: recombinant TEAD2 protein (218-447, Uniprot ID: Q15562) (Homo sapiens (Human), UniProt Q15562); experiment: Thermal shift assay (protein melting point curve), TEAD2; format: binding; settings: 10 μM TEAD protein, 50 μM test compound
Procedure: as §1, §2

[3] = tested on: recombinant TEAD1 protein (194-411, Uniprot ID: P28347); experiment: Thermal shift assay (protein melting point curve), TEAD1; format: binding; set-up: key to the marks not given beside the values; settings: 10 μM TEAD protein, 50 μM test compound
Procedure: as §1, §2

[4] = In vitro liver microsome stability, human; format: in vitro ADME; settings: for human half-life: human liver microsomes
Procedure: (§3) Testosterone is selected as the positive reference compound. The specific method is as follows:
(§4) Preparing 0.1MK3 PO4 (pH 7.4) buffer and 3×NADPH stock solution (6 mM, 5 mg/mL), and preheating in a 37° C. water bath; preparing spiking solution of tested compound and control compound: adding 5 μL compound stock solution (10 mM) to 95 μL acetonitrile; preparing 1.5 μM spiking solution in microsomes (0.75 mg/mL): add 1.5 μL spiking solution and 18.75 μL liver microsome solution (20 mg/mL) to 479.75 μL K3PO4 buffer; taking 30 μL spiking solution in microsomes and adding it to the multiwell plate, and incubating at 37° C. for 5 min; adding 15 μL of NADPH stock solution to each well, starting to react, and timing; adding 150 μL of acetonitrile solution containing IS at 0 min, 5 min, 15 min, 30 min, 45 min and 60 min respectively to terminate the reaction; after 10 min of oscillation, centrifuging the reaction at 6000 rpm for 15 min; taking 80 μL of supernatant from each well for LC/MS detection and calculating Ti/2.
(§5) Liver microsomes of mice, rats, dogs, and human used in the experiment are purchased from Xenotech.

[5] = molecular target: recombinant TEAD3 protein (218-435, Uniprot ID: Q99594) (Homo sapiens (Human), UniProt Q99594); experiment: Thermal shift assay (protein melting point curve), TEAD3; format: binding; settings: 10 μM TEAD protein, 50 μM test compound
Procedure: as §1, §2

[6] = In vitro liver microsome stability, mouse; format: in vitro ADME; settings: for mouse half-life: mouse liver microsomes
Procedure: as §3, §4, §5

[7] = molecular target: recombinant TEAD1 protein central pocket (Homo sapiens (Human), UniProt P28347); experiment: Competitive thiol binding assay (CPM assay), TEAD1; settings: 150 nM recombinant TEAD protein, 150 nM CPM
Procedure: (§6) Diluting the tested compound in gradient to 5 uL with buffer (25 mM HEPES, 150 mM NaCl, pH6.5), then adding 5 μL of the newly prepared 0.45 uM recombinant TEAD protein solution, and incubating at room temperature for 10 minutes. […] After shaking the plate at room temperature for 1 hour, measuring the fluorescence intensity (Ex/Em: 380/470 nm).

[8] = molecular target: recombinant TEAD4 protein central pocket (Homo sapiens (Human), UniProt Q15561); experiment: Competitive thiol binding assay (CPM assay), TEAD4; settings: 150 nM recombinant TEAD protein, 150 nM CPM
Procedure: as §6

Caco-2 cells = experiment: Permeability test on Caco2 cells; format: in vitro ADME
Procedure: After resuscitation, the Caco-2 cells are transferred to a conventional culture dish and cultured in a high-glucose DMEM medium (containing 10% FBS) at 37° C. and 5% CO2 in an incubator. When the cells cover 80% to 95% of the bottom of the dish, they are digested with trypsin containing 0.25% EDTA to disperse them into a single cell suspension, and the cell concentration is determined using a cell counter, after that, the concentration of the cell suspension is adjusted to 2 to 2.5×10^5/mL with fresh culture medium and inoculated into a Transwell polycarbonate membrane 12-well plate, the fresh culture medium is replaced every two days in the first two weeks and once a day in the last week, the culture is continued for 19 to 21 days to obtain a fully differentiated single cell layer.

TEAD family proteins = experiment: Thermal shift assay, summary over all TEAD subtypes; format: binding; settings: summary of Table 1
Procedure: as §1, §2

Chain of recombinant TEAD3 protein (218-435, Uniprot ID: Q99594) (Q99594 218-435): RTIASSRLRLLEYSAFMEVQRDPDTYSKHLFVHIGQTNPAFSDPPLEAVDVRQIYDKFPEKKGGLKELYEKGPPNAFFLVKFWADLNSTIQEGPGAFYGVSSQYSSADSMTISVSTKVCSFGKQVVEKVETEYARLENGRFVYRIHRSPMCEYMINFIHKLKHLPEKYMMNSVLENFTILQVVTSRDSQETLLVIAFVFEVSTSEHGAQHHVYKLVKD
Chain of recombinant TEAD2 protein (218-447, Uniprot ID: Q15562) (Q15562 218-447): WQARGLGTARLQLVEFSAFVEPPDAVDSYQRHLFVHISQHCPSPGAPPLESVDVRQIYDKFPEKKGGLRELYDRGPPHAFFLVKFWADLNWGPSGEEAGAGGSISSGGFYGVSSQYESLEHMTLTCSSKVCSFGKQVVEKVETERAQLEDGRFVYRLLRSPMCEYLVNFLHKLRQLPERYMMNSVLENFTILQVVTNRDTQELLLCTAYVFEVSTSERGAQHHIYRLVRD
Chain of recombinant TEAD4 protein central pocket (Q15561 whole entry): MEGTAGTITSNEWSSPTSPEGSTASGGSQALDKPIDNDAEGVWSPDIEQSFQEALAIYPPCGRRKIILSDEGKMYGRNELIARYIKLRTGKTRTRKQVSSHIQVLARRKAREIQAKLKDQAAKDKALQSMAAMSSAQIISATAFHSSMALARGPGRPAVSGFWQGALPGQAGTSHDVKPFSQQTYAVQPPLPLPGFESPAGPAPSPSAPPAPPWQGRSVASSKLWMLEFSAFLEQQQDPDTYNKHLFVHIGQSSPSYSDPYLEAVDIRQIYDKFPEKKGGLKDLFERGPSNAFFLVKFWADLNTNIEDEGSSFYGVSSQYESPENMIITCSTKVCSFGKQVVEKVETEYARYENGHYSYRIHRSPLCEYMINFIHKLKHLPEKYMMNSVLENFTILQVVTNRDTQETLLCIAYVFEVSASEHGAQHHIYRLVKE
Chain of recombinant TEAD1 protein central pocket (P28347 whole entry): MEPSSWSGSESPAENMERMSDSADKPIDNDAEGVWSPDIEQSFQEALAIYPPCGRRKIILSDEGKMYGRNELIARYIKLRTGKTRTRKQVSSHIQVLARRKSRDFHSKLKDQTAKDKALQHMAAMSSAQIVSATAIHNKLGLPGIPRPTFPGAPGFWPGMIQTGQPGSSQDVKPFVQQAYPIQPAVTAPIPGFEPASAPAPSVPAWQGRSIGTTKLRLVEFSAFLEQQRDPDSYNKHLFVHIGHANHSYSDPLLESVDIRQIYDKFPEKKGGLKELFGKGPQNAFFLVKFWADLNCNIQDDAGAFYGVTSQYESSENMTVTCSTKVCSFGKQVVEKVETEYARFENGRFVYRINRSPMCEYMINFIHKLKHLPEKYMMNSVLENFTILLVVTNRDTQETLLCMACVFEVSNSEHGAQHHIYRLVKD
Chain of recombinant TEAD4 protein (217-434, Uniprot ID: Q15561) (Q15561 217-434): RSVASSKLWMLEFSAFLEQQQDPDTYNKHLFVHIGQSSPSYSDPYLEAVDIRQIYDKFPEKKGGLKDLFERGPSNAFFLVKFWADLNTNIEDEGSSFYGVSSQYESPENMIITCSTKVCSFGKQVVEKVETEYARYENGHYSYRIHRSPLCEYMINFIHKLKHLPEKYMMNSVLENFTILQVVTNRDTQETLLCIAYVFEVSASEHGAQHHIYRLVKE

| SMILES | Δ T m (TEAD4) [1] | Δ T m (TEAD2) [2] | Δ T m (TEAD1) [3] | metabolic stability ([4]; human liver microsome environment) | human half-life [4] | Δ T m (TEAD3) [5] | metabolic stability ([6]; mouse liver microsome environment) | mouse half-life [6] | IC50 [7] | IC50 [8] | Papp average value (Caco-2 cells; AP→BL, n = 2) | Papp (Caco-2 cells; AP→BL, single replicate) | Receiving chamber concentration Area ratio/OD (Caco-2 cells; AP→BL, single replicate) | Penetration Type (Caco-2 cells; Caco2 cell model) | binding ability to each subtype of TEAD family proteins (TEAD family proteins) |
| --- | --- | --- | --- | --- | --- | --- | --- | --- | --- | --- | --- | --- | --- | --- | --- |
| Cn1cnc(-c2cc(P3(=O)CCNCC3)ccc2Nc2ccc(C(F)(F)F)cc2)c1 [Compound 1] | +++ | +++ | +++ | good metabolic stabilities | 5.98 h | ++ | good metabolic stabilities | 1.56 h |  |  |  |  |  |  |  |
| CP(C)(=O)c1cc(-c2nccc(OC3COC3)n2)c(Nc2ccc(C(F)(F)F)cc2)s1 [Compound 24] | ++++ | ++ | ++++ |  |  | + |  |  | 180 nM | 290 nM |  |  |  |  |  |
| CP(C)(=O)c1ccc(Nc2ccc(C(F)(F)F)cc2)c(-c2nccc(OC3CCOC3)n2)c1 (stereo not shown) [Compound 18] | +++ | + | ++++ |  |  | + |  |  | 160 nM | 210 nM |  |  |  |  |  |
| CP(C)(=O)c1ccc(Nc2ccc(S(F)(F)(F)(F)F)cc2)c(-c2nccc(OC3COC3)n2)c1 [Compound 74] | ++++ | + | ++++ |  |  | + |  |  | 190 nM | 210 nM |  |  |  |  |  |
| CNC(=C[N+](=O)[O-])NCCSCc1ccc(CN(C)C)o1 [ranitidine] |  |  |  |  |  |  |  |  |  |  | 1.84 10^−6 cm/s | 1.99 10^−6 cm/s and 1.69 10^−6 cm/s | 3.32 and 2.82 | Medium |  |
| CP(C)(=O)c1ccc(Nc2ccc(C(F)(F)F)cc2)c(-c2nccc(N3CC[C@H](O)C3)n2)c1 [Compound 9] | +++ | ++ | +++ |  | 0.488 h | + |  | 1.43 h |  |  |  |  |  |  |  |
| CCP(=O)(CC)c1ccc(Nc2ccc(C(F)(F)F)cc2)c(-c2nccc(OC3COC3)n2)c1 [Compound 66] | ++++ | + | ++++ |  |  | + |  |  | 140 nM |  |  |  |  |  |  |
| CP(C)(=O)c1ccc(NC2CCC(F)(F)CC2)c(-c2nccc(OC3COC3)n2)c1 [Compound 30] | ++ | + | +++ |  |  | + |  |  | 690 nM | 810 nM |  |  |  |  |  |
| CP(C)(=O)c1ccc(Nc2ccc(C(F)(F)F)cc2)c(-c2nc(OC3COC3)cs2)c1 [Compound 7] | ++++ | ++ | ++++ |  |  | ++ |  |  | 170 nM | 250 nM |  |  |  |  | good binding abilities |
| CP(C)(=O)c1ccc(Nc2ccc(C(F)(F)F)cc2)c(-c2nccc(OCCO)n2)c1 [Compound 19] | + | ++ | ++ |  |  | ++ |  |  |  |  |  |  |  |  |  |
| CP(C)(=O)c1ccc(Nc2ccc(C(F)(F)F)cc2)c(-n2cc(C3CCOCC3)cn2)c1 [Compound 33] | ++ | + | ++ |  |  | + |  |  |  |  |  |  |  |  |  |
| CP(C)(=O)c1ccc(NCc2ccc(C(F)(F)F)cc2)c(-n2cc(C3CCOCC3)cn2)c1 [Compound 58] | + | + | ++ |  |  | + |  |  |  |  |  |  |  |  |  |
| CP(C)(=O)c1ccc(Nc2ccc(C(F)(F)F)cc2)c(-c2cn(C3COC3)nn2)c1 [Compound 41] | +++ | +++ | +++ |  |  | ++ |  |  |  |  |  |  |  |  |  |
